Where “and” joins values, the source holds several entries; their conditions need not be identical. Identical values can stand only once. Counter-ions that a name gives are not always drawn.
Test system: Swiss mice CD1
Assay: forced swim test, Alverine and imipramine administered intraperitoneally to mice (Example 3, first test)
Format: in vivo
Parameters: key to Dunnett test vs control group: * indicates a significant difference for p < 0.05 (Dunnett test); ns indicates an insignificant result
Settings: for immobility time, individual animals / immobility time, Mean: 30 minutes prior to the test; for immobility time, Mean: n = 10
Method: These are Swiss mice CD1 (CD-1® (ICR) IGS (Charles River France) weighing between 25 and 35 g. […] They are placed 15 to 20 per cage, over an acclimatising period of at least 5 days prior to the tests. They are identified by marking on the fur. […] The mice were divided into two test comprising six groups of 10 mice each. For the first test: The first group is the control group: it is treated only by excipient. The second group is treated with imipramine at a dose of 3 mg/kg The third group is treated with Alverine at a dose of 3 mg/kg The fourth group is treated with Alverine at a dose of 3 mg/kg and imipramine at a dose of 3 mg/kg The fifth group is treated with imipramine at a dose of 10 mg/kg […] The doses are expressed in terms of free active substances. The test substances are prepared extemporaneously in a saline solution. The treatments are co-administered 30 minutes prior to the test in a coded and random order intraperitoneally with a volume of 10 ml/kg (5 ml/kg for each administration). Thirty minutes following administration the six groups of mice are subjected to the forced swim test, in a vertical Plexiglas cylinder (height 24 cm, diameter 9 cm) containing water (height 6 cm, temperature 18-22° C.). The total duration of immobility is measured over the last four minutes of the test, six minutes in total. A mouse is deemed immobile when it ceases struggling and floats in the water without movements superfluous to those allowing it to keep its head above water. A drop in immobility time is the reflection of an antidepressant effect. The forced swim test is a pre-clinical behavioural model, which has good predictive validity and is widely employed for determining the efficacy of antidepressant medications (Borsini and Meli, 1988). The results are expressed in total duration of immobility in seconds and as a percentage of variation of the total duration of immobility calculated from the average value of the control group. The statistical significance between two treated groups is determined by using a Student test (P<0.05) The data are analysed using <<SigmaStat>> software.

[1] = Alverine 3 mg/kg intraperitoneally
[2] = Alverine 10 mg/kg intraperitoneally

CCN(CCCc1ccccc1)CCCc1ccccc1 [Alverine citrate, N-ethyl-3,3′-diphenyldipropylamine]
% of variation of immobility time vs control group [1]: −30% | Dunnett test vs control group [1]: ns | immobility time, individual animals [1]: 108 s and 134 s and 113 s and 65 s and 85 s and 73 s and 79 s and 125 s and 95 s and 140 s | immobility time, Mean [1]: 101.7 s | % of variation of immobility time vs control group [2]: −70% | Dunnett test vs control group [2]: * (* indicates a significant difference for p < 0.05 (Dunnett test)) | immobility time, individual animals [2]: 28 s and 10 s and 1 s and 74 s and 22 s and 70 s and 69 s and 67 s and 42 s and 57 s | immobility time, Mean [2]: 44.0 s | decrease in the duration of immobilisation as compared to the control group (in words) (tested alone at 3 mg/kg intraperitoneally): statistically insignificant decrease
